Reference: patent publication US20230147588A1, “USE OF1,9-DECANEDIOL IN INHIBITING AMMONIA VOLATILIZATION FROM SOIL” (INSTITUTION OF SOIL SCIENCE, CHINESE ACADEMY OF SCIENCES, priority 2021, published 2023)

How the values were obtained:
[1] = test system: ammonia volatilization from soil; experiment: Soil column culture: effects of different inhibitors on ammonia volatilization from soil (Test Example 2); settings: 21 days; for inhibition of ammonia volatilization from soil compared with the urea treatment (U): 200 mg N per kg soil; for order of inhibition effects of ammonia volatilization, from high to low: suffix -100 / -500 = addition in soil in mg/kg, with urea
Source text: A soil column culture method is used for the test (FIG. 1). The soil column is 18 centimeters (cm) in height and 5 cm in inner diameter, which is divided into a leak-proof layer, a soil-fertilizer mixed layer, a flooded layer, and an idle layer (also referred to as spare layer). A leak-proof pad and 1 cm thick quartz sand are placed in the leak-proof layer at a bottom of the soil column firstly to prevent soil leakage and simulate a real situation in the field, and then the experimental soil is added to the soil-fertilizer mixed layer, and after compaction, a bottom leaching switch is turned on and water is added to restore the soil activity. After one night of soil recovery activity, the bottom leaching switch is turned off, and the urea required for each treatment is mixed with 1,9-decanediol to prepare a mixed solution. The mixed solution is evenly applied to the soil-fertilizer mixture layer of the soil column, the water is added to maintain a flooded state, and the ammonia volatilization from soil is monitored for 21 consecutive days.
2.1 Test Soil: The Same as Test Example 1
2.2 test reagent: 1, 9-decanediol, the same as test example 1, dicyandiamide (DCD, C2H4N4), linolenic acid (LN, […]) and methyl 3-(4-hydroxyphenyl)propionate (MHPP, C10H12O3) are purchased from Sigma.
2.3 experimental treatments: urea treatment (U), DCD + urea treatment, LN + urea treatment, MHPP + urea treatment, and 1,9-decanediol + urea treatment are set in experiments, in which an addition of DCD in soil is 20 mg/kg, and additions of LN, MHPP and 1,9-decanediol in soil each includes 100 mg/kg and 500 mg/kg, numbered as: DCD, LN-100, LN-500, MHPP-100, MHPP-500, 1,9-D-100, and 1,9-D-500. Each treatment is repeated three times. The nitrogen application rate is 200 mg nitrogen per kilogram soil.
2.4 Experimental Steps: The Same as the Test Example 1

[2] = test system: ammonia volatilization from soil; experiment: Soil column culture: effects of 1,9-decanediol on ammonia volatilization from soil (Test Example 1); settings: paddy soil column, 21 days
Experimental: 1.1 test soil: the test soil type is paddy soil, and the texture is sandy loam. It is collected from 0~20 centimeters (cm) topsoil of the experimental field in Yingtan City, Jiangxi Province (28°15′N, 116°55′E), sieved with a 2 millimeters (mm) sieve, and mixed evenly. See Table 1 for basic physical and chemical properties.
1.3 experimental treatment: urea treatment (U) and 1,9-decanediol + urea treatment are set in experiments. Among them, 1, 9-decanediol is added in soil at four levels of 100 mg/kg, 200 mg/kg, 500 mg/kg, and 1000 mg/kg, numbered as: 1, 9-D-100, 1, 9-D-200, 1, 9-D-500, and 1, 9-D-1000 respectively. Each treatment is repeated three times. The nitrogen application rate is 200 mg nitrogen per kilogram soil.
A soil column culture method is used for the test (FIG. 1). The soil column is 18 centimeters (cm) in height and 5 cm in inner diameter, which is divided into a leak-proof layer, a soil-fertilizer mixed layer, a flooded layer, and an idle layer (also referred to as spare layer). […] The mixed solution is evenly applied to the soil-fertilizer mixture layer of the soil column, the water is added to maintain a flooded state, and the ammonia volatilization from soil is monitored for 21 consecutive days.

nitrification process = settings: at low concentration; cited from earlier work
[3] = paddy soil column, additions 100 and 500 mg/kg with urea

For CC(O)CCCCCCCCO (centres unmarked) [1,9-decanediol], the “ammonia volatilization from soil compared with LN and MHPP treatments” value [1, 3] was “significantly lower than that from soil treated with LN and MHPP”, the “inhibition of ammonia volatilization from soil compared with the urea treatment (U)” value [1, 3] was “can inhibit ammonia volatilization from soil” and the “order of inhibition effects of ammonia volatilization, from high to low” value [1] was 1,9-D-500 > LN-500 > 1,9-D-100 >MHPP-500 > LN-100 > MHPP-100. For the same compound, the “dose dependence of the inhibition effect of ammonia volatilization” value ([2]; 100 to 1000 mg/kg in soil with urea) was “more obvious with the increase of the dosage”, the “total amount of ammonia volatilization from soil compared with the treatment (U) without 1,9-decanediol” value ([2]; flooded, 100, 200, 500, 1000 mg/kg in soil with urea, 200 mg N per kg soil) was “significantly reduce the total amount of ammonia volatilization from soil” and the “inhibition of the nitrification process” value (nitrification process) was “can inhibit the nitrification process at low concentration”.

In the case of COC(=O)CCc1ccc(O)cc1 [MHPP, methyl 3-(4-hydroxyphenyl)propionate, reference compound], the “inhibition of ammonia volatilization from soil compared with the urea treatment (U)” value [1, 3] is reported as “can inhibit ammonia volatilization from soil” and the “order of inhibition effects of ammonia volatilization, from high to low” value [1] is reported as 1,9-D-500 > LN-500 > 1,9-D-100 >MHPP-500 > LN-100 > MHPP-100.
